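Results reflect a 48-hour exposure of cells in 96-well plates to compound at five concentrations. GI50 marks 50% less growth. TGI denotes the concentration required for complete inhibition of growth.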
How the values were obtained:
Test in all cases: NCI tumour cell line growth inhibition, 48 h
[1] = tested on: OVCAR-5 ovarian
[2] = tested on: OVCAR-8 ovarian
[3] = tested on: NCI-H460 lung
[4] = tested on: IGROV1 ovarian
[5] = tested on: TK-10 renal
[6] = tested on: NCI-H226 lung
[7] = tested on: SF-295 CNS
[8] = tested on: NCI-H23 lung
[9] = tested on: K-562 leukemia
[10] = tested on: NCI/ADR-RES ovarian
[11] = tested on: HCT-116 colon
[12] = tested on: UO-31 renal
[13] = tested on: HT29 colon
[14] = tested on: SK-MEL-28 melanoma
[15] = tested on: KM12 colon
[16] = tested on: MDA-MB-435
[17] = tested on: UACC-257 melanoma
[18] = tested on: NCI-H522 lung
[19] = tested on: SF-539 CNS
[20] = tested on: CCRF-CEM leukemia
[21] = tested on: HL-60(TB) leukemia
[22] = tested on: SW-620 colon
[23] = tested on: M14 melanoma
[24] = tested on: CAKI-1 renal
[25] = tested on: SF-268 CNS
[26] = tested on: SR leukemia
[27] = tested on: DU-145 prostate
[28] = tested on: LOX IMVI melanoma
[29] = tested on: UACC-62 melanoma
[30] = tested on: SK-MEL-5 melanoma
[31] = tested on: MOLT-4 leukemia
[32] = tested on: RXF 393 renal
[33] = tested on: T-47D breast
[34] = tested on: MDA-MB-231 breast
[35] = tested on: PC-3 prostate
[36] = tested on: SK-OV-3 ovarian
[37] = tested on: HOP-92 NSCLC
[38] = tested on: MCF7 breast
[39] = tested on: BT-549 breast
[40] = tested on: HOP-62 NSCLC
[41] = tested on: HS 578T breast
[42] = tested on: SN12C renal
[43] = tested on: SNB-75 CNS
[44] = tested on: 786-0 renal
[45] = tested on: OVCAR-3 ovarian
[46] = tested on: HCT-15 colon
[47] = tested on: RPMI-8226 leukemia
[48] = tested on: OVCAR-4 ovarian
[49] = tested on: SNB-19 CNS
[50] = tested on: A549 NSCLC
[51] = tested on: EKVX NSCLC
[52] = tested on: HCC-2998 colon
[53] = tested on: MALME-3M melanoma
[54] = tested on: SK-MEL-2 melanoma
[55] = tested on: A498 renal
[56] = tested on: U251 CNS
[57] = tested on: ACHN renal
[58] = tested on: COLO 205 colon

For NCCNc1c2c(c(NCCN)c3[nH]ccc13)C(=O)c1ccccc1C2=O, the GI50 [1] was 279 nM, the TGI [1] was 960 nM and the GI50 [2] was 151 nM. It also gave a TGI [2] of 612 nM, a GI50 [3] of 766 nM and a TGI [3] of 2880 nM. For the same compound, the GI50 [4] was 1200 nM, the TGI [4] was greater than 100 µM and the GI50 [5] was 0.145 µM. It also gave a TGI [5] of 682 nM, a GI50 [6] of 198 nM and a TGI [6] of 896 nM. The GI50 [7] was less than 34.1 nM, the TGI [7] was 0.352 µM and the GI50 [8] was 74.1 nM. For the same compound, the TGI [8] was 0.475 µM, the GI50 [9] was 118 nM and the TGI [9] was 1140 nM. For the same compound, the GI50 [10] was 13.3 µM, the TGI [10] was 29.6 µM and the GI50 [11] was less than 26.1 nM. The TGI [11] was 401 nM, the GI50 [12] was 13.8 µM and the TGI [12] was greater than 60 µM. It also gave a GI50 [13] of 52.7 nM, a TGI [13] of 634 nM and a GI50 [14] of 439 nM. For the same compound, the TGI [14] was 1800 nM, the GI50 [15] was 191 nM and the TGI [15] was 957 nM. For the same compound, the GI50 [16] was 225 nM, the TGI [16] was 692 nM and the GI50 [17] was 2.63 µM. For the same compound, the TGI [17] was 7.5 µM, the GI50 [18] was 1900 nM and the TGI [18] was greater than 100 µM. For the same compound, the GI50 [19] was 44.4 nM, the TGI [19] was 885 nM and the GI50 [20] was less than 10 nM. It also gave a TGI [20] of 163 nM, a GI50 [21] of 132 nM and a TGI [21] of 470 nM. The GI50 [22] was 216 nM, the TGI [22] was 1090 nM and the GI50 [23] was 1450 nM. For the same compound, the TGI [23] was 2760 nM, the GI50 [24] was less than 42 nM and the TGI [24] was 777 nM. It also gave a GI50 [25] of 170 nM, a TGI [25] of 662 nM and a GI50 [26] of 52.7 nM. The TGI [26] was 334 nM, the GI50 [27] was 694 nM and the TGI [27] was 2400 nM. The GI50 [28] was 11.1 nM, the TGI [28] was 242 nM and the GI50 [29] was 84.2 nM. For the same compound, the TGI [29] was 372 nM, the GI50 [30] was 178 nM and the TGI [30] was 808 nM. For the same compound, the GI50 [31] was less than 10 nM, the TGI [31] was 43.7 nM and the GI50 [32] was 48.8 nM. For the same compound, the TGI [32] was 525 nM, the GI50 [33] was 1630 nM and the TGI [33] was greater than 100 µM. For the same compound, the GI50 [34] was 109 nM, the TGI [34] was 0.605 µM and the GI50 [35] was 631 nM. The TGI [35] was 2450 nM, the GI50 [36] was 790 nM and the TGI [36] was 5.52 µM. It also gave a GI50 [37] of 427 nM, a TGI [37] of 4.21 µM and a GI50 [38] of 29 nM. It also gave a TGI [38] of 323 nM, a GI50 [39] of 1220 nM and a TGI [39] of 2.62 µM. It also gave a TGI [40] of 0.624 µM, a GI50 [41] of 12 nM and a TGI [41] of 219 nM. For the same compound, the GI50 [42] was 97.8 nM, the TGI [42] was 994 nM and the GI50 [43] was 317 nM. For the same compound, the TGI [43] was 945 nM, the GI50 [44] was 224 nM and the TGI [44] was 1040 nM. The GI50 [45] was less than 48.9 nM, the TGI [45] was 0.251 µM and the GI50 [46] was 845 nM. For the same compound, the TGI [46] was 14.8 µM, the GI50 [47] was 278 nM and the TGI [47] was 1.21 µM. For the same compound, the GI50 [48] was 296 nM, the TGI [48] was 1340 nM and the GI50 [49] was 206 nM. For the same compound, the TGI [49] was 1120 nM, the GI50 [50] was 630 nM and the TGI [50] was 2530 nM. It also gave a GI50 [51] of 1250 nM, a TGI [51] of 3.91 µM and a GI50 [52] of less than 10 nM. For the same compound, the TGI [52] was 0.093 µM, the GI50 [53] was 177 nM and the TGI [53] was 658 nM. The GI50 [54] was 0.785 µM, the TGI [54] was 2410 nM and the GI50 [55] was 231 nM. The TGI [55] was 565 nM, the TGI [56] was 842 nM and the GI50 [57] was 124 nM. For the same compound, the TGI [57] was 706 nM, the GI50 [58] was 280 nM and the TGI [58] was 5.8 µM.

Work on CN1C(=O)N(C)C2C1NN=c1s/c(=C\c3ccc(Cl)cc3Cl)c(=O)n12 (centres undefined) yielded a GI50 [1] of 601 nM, a TGI [1] greater than 100000 nM and a GI50 [2] of 399 nM. For the same compound, the TGI [2] was greater than 100000 nM, the GI50 [3] was 199 nM and the TGI [3] was greater than 94300 nM. The GI50 [4] was 326 nM, the TGI [4] was greater than 50.1 µM and the GI50 [5] was 10.2 µM. For the same compound, the TGI [5] was greater than 92400 nM, the GI50 [6] was 623 nM and the TGI [6] was greater than 100000 nM. For the same compound, the GI50 [7] was 57.9 nM, the TGI [7] was 15.3 µM and the GI50 [8] was 370 nM. It also gave a TGI [8] of 52.9 µM, a GI50 [9] of 47.3 nM and a TGI [9] greater than 50700 nM. It also gave a GI50 [10] of 0.13 µM, a TGI [10] of 18.1 µM and a GI50 [11] of 131 nM. The TGI [11] was greater than 40200 nM, the GI50 [12] was 0.892 µM and the TGI [12] was greater than 71.8 µM. The GI50 [13] was 117 nM, the TGI [13] was greater than 100000 nM and the GI50 [14] was 4260 nM. For the same compound, the TGI [14] was greater than 94600 nM, the GI50 [15] was 134 nM and the TGI [15] was greater than 75400 nM. It also gave a GI50 [16] of 33.3 nM, a TGI [16] of 2110 nM and a GI50 [17] of 12.2 µM. For the same compound, the TGI [17] was greater than 100 µM, the GI50 [18] was 95.8 nM and the TGI [18] was greater than 57.8 µM. For the same compound, the GI50 [19] was 131 nM, the TGI [19] was 3250 nM and the GI50 [20] was 262 nM. For the same compound, the TGI [20] was greater than 100000 nM, the GI50 [21] was 264 nM and the GI50 [22] was 109 nM. The TGI [22] was greater than 100000 nM, the GI50 [23] was 167 nM and the TGI [23] was greater than 37900 nM. The GI50 [24] was 60.8 nM, the TGI [24] was greater than 62300 nM and the GI50 [25] was 1660 nM. The TGI [25] was greater than 100000 nM, the GI50 [26] was 55.7 nM and the TGI [26] was greater than 100000 nM. For the same compound, the GI50 [27] was 334 nM, the TGI [27] was greater than 20500 nM and the GI50 [28] was 159 nM. The TGI [28] was greater than 100000 nM, the GI50 [29] was 70.9 nM and the TGI [29] was greater than 65200 nM. For the same compound, the GI50 [30] was 167 nM, the TGI [30] was 1780 nM and the GI50 [31] was 363 nM. The TGI [31] was greater than 100000 nM, the GI50 [32] was 86.2 nM and the TGI [32] was 925 nM. It also gave a GI50 [33] of 57.6 nM, a TGI [33] greater than 100 µM and a GI50 [34] of 479 nM. It also gave a TGI [34] of 19.6 µM, a GI50 [35] of 167 nM and a TGI [35] greater than 100000 nM. For the same compound, the GI50 [36] was 754 nM, the TGI [36] was greater than 100 µM and the GI50 [37] was 406 nM. The TGI [37] was 79.4 µM, the GI50 [38] was 45 nM and the TGI [38] was greater than 48300 nM. For the same compound, the GI50 [39] was 264 nM, the TGI [39] was 12.8 µM and the GI50 [40] was 116 nM. The TGI [40] was 30.2 µM, the GI50 [41] was 173 nM and the TGI [41] was greater than 92600 nM. The GI50 [42] was 422 nM, the TGI [42] was greater than 100000 nM and the GI50 [43] was 27.4 nM. The TGI [43] was 2320 nM, the GI50 [44] was 703 nM and the TGI [44] was greater than 48800 nM. For the same compound, the GI50 [45] was 104 nM, the TGI [45] was 11.2 µM and the GI50 [46] was 88.2 nM. For the same compound, the TGI [46] was greater than 100 µM, the GI50 [47] was 364 nM and the TGI [47] was 16.3 µM. For the same compound, the GI50 [48] was 1660 nM, the TGI [48] was greater than 78900 nM and the GI50 [49] was 339 nM. For the same compound, the TGI [49] was greater than 100000 nM, the GI50 [50] was 243 nM and the TGI [50] was greater than 100000 nM. It also gave a GI50 [51] of 425 nM, a TGI [51] greater than 100 µM and a GI50 [52] of 281 nM. The TGI [52] was 15.5 µM, the GI50 [53] was 1210 nM and the TGI [53] was greater than 81600 nM. For the same compound, the GI50 [54] was 11.7 µM, the TGI [54] was greater than 100000 nM and the GI50 [55] was 67 nM. It also gave a TGI [55] of 653 nM, a GI50 [56] of 192 nM and a TGI [56] greater than 100000 nM. The GI50 [57] was 236 nM, the TGI [57] was greater than 100000 nM and the GI50 [58] was 95.1 nM. It also gave a TGI [58] of 2.58 µM.

Reference: PubChem BioAssay (NCI)
